US9643957B2, “Heterocyclic compounds having cholesterol 24-hydroxylase activity” (TAKEDA PHARMACEUTICAL COMPANY LIMITED, priority 2012, dated 2017)

test system: 24-HC in the brain; assay: Quantification test of 24-HC in mouse brain after repeated oral administration; type: in vivo; settings: 30 mg/kg orally once a day for 3 days, female C57BL/6N mice, brain 24-HC at 16 hours after the third administration, relative to control group, read-out: Decreasing Rate in 30 mg/kg (%)
Procedure: Animals used were 6-week-old female C57BL/6N mice (3 mice/group). A test compound was suspended in a 0.5% aqueous methylcellulose [133-14255 WAKO] solution (1 mg/mL). The body weight of the mice was measured, and the solution was forcibly administered orally and repeatedly once a day for 3 days. At 16 hours after the third administration, half of the brain was harvested, and the amount of 24-HC was measured.
The wet weight of the brain was measured, and the brain was homogenized with 4-fold amount of saline. This solution was used as a brain extract. The 24-HC in the brain extract was extracted with an acetonitrile solution (98% acetonitrile, 1.98% methanol, 0.02% formic acid), and quantified by HPLC. The average value of 24-HC amount was calculated and the results are shown in relative values with the control group as 100%.

Row | SMILES | inhibition in vivo at 30 mg/kg [%]
1 | Cc1cnc(-c2ccncc2N2CCC(C(=O)N3CCC[C@@H]3C#N)CC2)s1 [Example 129, (2R)-1-((1-(4-(5-methyl-1,3-thiazol-2-yl)pyridin-3-yl)piperidin-4-yl)carbonyl)pyrrolidine-2-carbonitrile] | 44
2 | COC[C@H]1CCCN1C(=O)C1CCN(c2cnccc2-c2nnc(C)s2)CC1 [Example 133, ((2R)-2-(methoxymethyl)pyrrolidin-1-yl)(1-(4-(5-methyl-1,3,4-thiadiazol-2-yl)pyridin-3-yl)piperidin-4-yl)methanone] | 70
3 | Cc1nnc(-c2ccncc2N2CCC(C(=O)N3CC(F)(F)C[C@@H]3C#N)CC2)s1 [Example 132, (2R)-4,4-difluoro-1-((1-(4-(5-methyl-1,3,4-thiadiazol-2-yl)pyridin-3-yl)piperidin-4-yl)carbonyl)pyrrolidine-2-carbonitrile] | 65
4 | Cc1cnn(-c2ccncc2N2CCC(C(=O)N3CC(F)(F)C[C@@H]3C#N)CC2)c1 [Example 130, (2R)-4,4-difluoro-1-((1-(4-(4-methyl-1H-pyrazol-1-yl)pyridin-3-yl)piperidin-4-yl)carbonyl)pyrrolidine-2-carbonitrile] | 54
5 | N#C[C@H]1CCCN1C(=O)C1CCN(c2cnccc2-c2ccccn2)CC1 [Example 142, (2R)-1-((1-(2,4′-bipyridine-3′-yl)piperidin-4-yl)carbonyl)pyrrolidine-2-carbonitrile] | 69

target: T1, human CH24H (Homo sapiens, UniProt Q9Y6A2); assay: Measurement of CH24H inhibitory activity (24-HC produced from [14C] cholesterol by human CH24H lysate); type: biochemical; settings: 1 μM test compound, [14C] cholesterol 15 μM, 37° C. for 5 hr, read-out: Inhibitory Rate in 1 μM (%)
T1 construct: Using Full-Length Mammalian Gene Collection No. 4819975 (Invitrogen) as a template; made in house; host or cells: FreeStyle 293-F cells, transient transfection with pcDNA3.1(+)/hCH24H; lysate supernatant, not purified
Procedure: The expression of human CH24H was performed using FreeStyle 293 Expression System (Invitrogen). […] After transfection, the cells were cultured at 37° C., 8% CO2 with shaking at 125 rpm for 2 days. The cells were collected by centrifugation, and suspended in a suspension buffer (100 mM potassium phosphate (pH 7.4), 0.1 mM EDTA, 1 mM DTT, 20% Glycerol). The suspended product was disrupted by a polytron homogenizer (manufactured by Kinematica), and centrifuged at 9000×g for 10 min, and the supernatant was collected. The collected supernatant was cryopreserved (−80° C.) as a human CH24H lysate standard product.
For the measurement of CH24H inhibitory activity, using the human CH24H lysate prepared in Experimental Example 2, the amount of 24-HC produced from cholesterol by catalytic activity of CH24H was measured in the presence of a test compound, and compared with that measured in the absence of the test compound. That is, a test compound solution at various concentrations was mixed with a reaction buffer (50 mM potassium phosphate containing 0.1% BSA and Complete, EDTA-free, pH 7.4) and human CH24H lysate. Then, [^14C] cholesterol (53 mCi/mmol specific activity, 15 μM) was added, and CH24H reaction was performed at 37° C. for 5 hr. After completion of the reaction, a quenching solution consisting of chloroform/methanol/distilled water (2:2:1 v/v) was added, and the resulting 24-HC was extracted by shaking. The extract was applied to silica gel thin layer chromatography (ethyl acetate:toluene=4:6), and the obtained ^14C-24HC fraction was measured with BAS2500 (Fujifilm Corporation).
The inhibitory rate (%) was calculated from the ratio of radioactivity in the presence of a test compound relative to the radioactivity in the absence of the test compound.

T1 sequence (Q9Y6A2 whole entry): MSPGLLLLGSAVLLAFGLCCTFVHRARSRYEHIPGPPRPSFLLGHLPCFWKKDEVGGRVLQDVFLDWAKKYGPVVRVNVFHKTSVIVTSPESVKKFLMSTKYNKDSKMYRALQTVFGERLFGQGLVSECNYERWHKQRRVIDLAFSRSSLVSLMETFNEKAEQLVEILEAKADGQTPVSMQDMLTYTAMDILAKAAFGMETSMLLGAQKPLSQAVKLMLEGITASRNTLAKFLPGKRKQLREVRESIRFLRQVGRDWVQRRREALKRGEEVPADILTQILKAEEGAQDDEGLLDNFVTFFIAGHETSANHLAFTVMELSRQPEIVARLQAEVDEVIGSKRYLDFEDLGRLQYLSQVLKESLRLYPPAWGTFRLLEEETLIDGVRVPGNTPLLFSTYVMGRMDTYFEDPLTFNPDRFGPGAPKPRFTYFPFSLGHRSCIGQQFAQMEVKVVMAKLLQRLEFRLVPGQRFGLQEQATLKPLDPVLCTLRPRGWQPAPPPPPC

Row | SMILES | inhibition at 1 µM [%]
6 | Cc1cnc(-c2ccncc2N2CCC(C(=O)N3CCC[C@@H]3C#N)CC2)s1 [Example 129, (2R)-1-((1-(4-(5-methyl-1,3-thiazol-2-yl)pyridin-3-yl)piperidin-4-yl)carbonyl)pyrrolidine-2-carbonitrile] | 82
7 | COC[C@H]1CCCN1C(=O)C1CCN(c2cnccc2-c2nnc(C)s2)CC1 [Example 133, ((2R)-2-(methoxymethyl)pyrrolidin-1-yl)(1-(4-(5-methyl-1,3,4-thiadiazol-2-yl)pyridin-3-yl)piperidin-4-yl)methanone] | 87
8 | Cc1nnc(-c2ccncc2N2CCC(C(=O)N3CC(F)(F)C[C@@H]3C#N)CC2)s1 [Example 132, (2R)-4,4-difluoro-1-((1-(4-(5-methyl-1,3,4-thiadiazol-2-yl)pyridin-3-yl)piperidin-4-yl)carbonyl)pyrrolidine-2-carbonitrile] | 87
9 | N#C[C@H]1CCCN1C(=O)C1CCN(c2cnccc2-c2ccccn2)CC1 [Example 142, (2R)-1-((1-(2,4′-bipyridine-3′-yl)piperidin-4-yl)carbonyl)pyrrolidine-2-carbonitrile] | 93
10 | C[C@@H]1CN(c2cncnc2-c2ccccc2)CCN1C(=O)OCc1ccccc1 [Example 158, benzyl (2R)-2-methyl-4-(4-phenylpyrimidin-5-yl)piperazine-1-carboxylate] | 85
11 | Cc1nnc(-c2ccncc2N2CCC(C(=O)N3CCC[C@@H]3C#N)CC2)s1 [Example 87, (2R)-1-((1-(4-(5-methyl-1,3,4-thiadiazol-2-yl)pyridin-3-yl)piperidin-4-yl)carbonyl)pyrrolidine-2-carbonitrile] | 98
12 | CN(Cc1ccccc1)C(=O)N1CCN(c2cncnc2-c2ccccc2)CC1 [Example 298, N-benzyl-N-methyl-4-(4-phenylpyrimidin-5-yl)piperazine-1-carboxamide] | 79
13 | Cc1cnn(-c2ccncc2N2[C@@H]3CC[C@H]2C[C@H](C(=O)N(C)C)C3)c1 [Example 13, (3-exo)-N,N-dimethyl-8-(4-(4-methyl-1H-pyrazol-1-yl)pyridin-3-yl)-8-azabicyclo[3.2.1]octane-3-carboxamide] | 89
14 | O=C(C1CCN(c2cncnc2-c2ccc(F)cc2)CC1)N1CC(F)C1 [Example 278, (3-fluoroazetidin-1-yl)(1-(4-(4-fluorophenyl)pyrimidin-5-yl)piperidin-4-yl)methanone] | 75
15 | C[C@H]1CN(c2cncnc2-c2ccccc2)CCN1C(=O)CC1CC1 [Example 170, 2-cyclopropyl-1-((2S)-2-methyl-4-(4-phenylpyrimidin-5-yl)piperazin-1-yl)ethanone] | 86
16 | O=C(C1CCN(c2cnccc2-n2cc(Cl)cn2)CC1)N1C2COCC1C2 [Example 35, (1-(4-(4-chloro-1H-pyrazol-1-yl)pyridin-3-yl)piperidin-4-yl)(3-oxa-6-azabicyclo[3.1.1]hept-6-yl)methanone] | 98
17 | O=C(C1CCN(c2cnccc2-c2ccccn2)CC1)N1CCC(F)(F)C1 [Example 214, (1-(2,4′-bipyridin-3′-yl)piperidin-4-yl) (3,3-difluoropyrrolidin-1-yl)methanone] | 89
18 | Cc1cnn(-c2ccncc2N2CCC3(CCN(C)C3=O)CC2)c1 [Example 82, 2-methyl-8-(4-(4-methyl-1H-pyrazol-1-yl)pyridin-3-yl)-2,8-diazaspiro[4.5]decan-1-one] | 97
19 | O=C(C1CCN(c2cncnc2-c2ccc(F)cc2)CC1)N1CC[C@@H](F)C1 [Example 287, (1-(4-(4-fluorophenyl)pyrimidin-5-yl)piperidin-4-yl)((3R)-3-fluoropyrrolidin-1-yl)methanone] | 89
20 | Cc1cnc(-c2ccncc2N2CCC(C(=O)N3CC(F)C3)CC2)s1 [Example 317, (3-fluoroazetidin-1-yl) (1-(4-(5-methyl-1,3-thiazol-2-yl)pyridin-3-yl)piperidin-4-yl)methanone] | 95
21 | CN(C)C(=O)C1CCN(c2cnccc2-c2nc3ccccc3s2)CC1 [Example 21, 1-(4-(1,3-benzothiazol-2-yl)pyridin-3-yl)-N,N-dimethylpiperidine-4-carboxamide] | 85
22 | Cc1cnn(-c2ccncc2N2CCN(C(=O)N(C)Cc3ccc(F)cc3)CC2)c1 [Example 297, N-(4-fluorobenzyl)-N-methyl-4-(4-(4-methyl-1H-pyrazol-1-yl)pyridin-3-yl)piperazine-1-carboxamide] | 84
23 | CN1CCC2(CCN(c3cncnc3-c3ccc(F)cc3)CC2)C1=O [Example 222, 8-(4-(4-fluorophenyl)pyrimidin-5-yl)-2-methyl-2,8-diazaspiro[4.5]decan-1-one] | 92

Further lines, results first:

Row | inhibition at 1 µM [%] | SMILES
24 | 93 | Cc1cnn(-c2ccncc2N2CCC(C(=O)N3CC(F)(F)C[C@@H]3C#N)CC2)c1 [Example 130, (2R)-4,4-difluoro-1-((1-(4-(4-methyl-1H-pyrazol-1-yl)pyridin-3-yl)piperidin-4-yl)carbonyl)pyrrolidine-2-carbonitrile]
25 | 98 | CO[C@H]1C[C@H](C#N)N(C(=O)C2CCN(c3cnccc3-n3cc(C)cn3)CC2)C1 [Example 144, (2R,4S)-4-methoxy-1-((1-(4-(4-methyl-1H-pyrazol-1-yl)pyridin-3-yl)piperidin-4-yl)carbonyl)pyrrolidine-2-carbonitrile]
26 | 79 | Cc1cnn(-c2ccncc2N2CCC(C(=O)N(CCF)C3CCOCC3)CC2)c1 [Example 311, N-(2-fluoroethyl)-1-(4-(4-methyl-1H-pyrazol-1-yl)pyridin-3-yl)-N-(tetrahydro-2H-pyran-4-yl)piperidine-4-carboxamide]
27 | 82 | O=C(C1CCN(c2cnccc2-n2cc(Cl)cn2)CC1)N1CC[C@@H](F)C1 [Example 285, (1-(4-(4-chloro-1H-pyrazol-1-yl)pyridin-3-yl)piperidin-4-yl)((3R)-3-fluoropyrrolidin-1-yl)methanone]
28 | 93 | O=C(NC1CCOCC1)C1CCN(c2cnccc2-n2cc(Cl)cn2)CC1(F)F (stereo not shown) [Example 79, 1-(4-(4-chloro-1H-pyrazol-1-yl)pyridin-3-yl)-3,3-difluoro-N-(tetrahydro-2H-pyran-4-yl)piperidine-4-carboxamide]
29 | 94 | O=C(C1CCN(c2cnccc2-n2cc(Br)cn2)CC1)N1CC[C@H](F)C1 [Example 318, (1-(4-(4-bromo-1H-pyrazol-1-yl)pyridin-3-yl)piperidin-4-yl)((3S)-3-fluoropyrrolidin-1-yl)methanone]
30 | 86 | CO[C@H]1CCN(C(=O)C2CCN(c3cnccc3-n3cc(C)cn3)CC2)C1 [Example 301, ((3S)-3-methoxypyrrolidin-1-yl)(1-(4-(4-methyl-1H-pyrazol-1-yl)pyridin-3-yl)piperidin-4-yl)methanone]
31 | 93 | O=C(C1CCN(c2cnccc2-n2cc(C3CC3)cn2)CC1)N1CC[C@H](F)C1 [Example 322, (1-(4-(4-cyclopropyl-1H-pyrazol-1-yl)pyridin-3-yl)piperidin-4-yl)((3S)-3-fluoropyrrolidin-1-yl)methanone]
32 | 82 | CN(C(=O)C1CCN(c2cncnc2-c2ccc(F)cc2)CC1)[C@@H]1CCOC1 [Example 310, 1-(4-(4-fluorophenyl)pyrimidin-5-yl)-N-methyl-N-((3R)-tetrahydrofuran-3-yl)piperidine-4-carboxamide]
33 | 98 | Cc1cnn(-c2ccncc2N2CCC(C(=O)N(C)C3CC3)CC2)c1 [Example 86, N-cyclopropyl-N-methyl-1-(4-(4-methyl-1H-pyrazol-1-yl)pyridin-3-yl)piperidine-4-carboxamide]
34 | 88 | Cc1cn(-c2ccncc2N2CCC(C(=O)NC3CC3)CC2)nc1C [Example 200, N-cyclopropyl-1-(4-(3,4-dimethyl-1H-pyrazol-1-yl)pyridin-3-yl)piperidine-4-carboxamide]
